Data: patent publication US20140127202A1, “ANTITUMOUR COMBINATIONS CONTAINING A VEGF INHIBITING AGENT AND IRINOTECAN” (Aventis Pharma S.A., priority 2007, published 2014)

Key:
[1] = Antitumor activity and toxicity in mice grafted subcutaneously with HCT116 human tumor fragments; type: in vivo; conditions: mouse, in vivo, iv; irinotecan alone, i.v. twice a day on days 12, 15, 18; read-out: maximum tolerated dose, total injected dose
Description: (§1) This effectiveness can be quantified, for example, by the log10 cell kill, which is determined according to the following equation:
(§2) log10 cell kill=T-C (days)/3.34×Td
(§3) in which T-C represents the delay in growth of the cells, which is the average time, in days, for the tumors of the treated group (T) and the tumors of the control group (C) to have reached a predetermined value (1 g for example), and Td represents the time, in days, necessary for the volume of the tumor to double in the control animals [T. H. Corbett et al., Cancer, 40, 2660.2680 (1977); F. M. Schabel et al., Cancer Drug Development, Part B, Methods in Cancer Research, 17, 3-51, New York, Academic Press Inc. (1979)]. A product is considered to be active if log10 cell kill is greater than or equal to 0.7. A product is considered to be very active if log10 cell kill is greater than 2.8.
(§4) The combination, used at its own maximum tolerated dose, in which each of the constituents is present at a dose generally less than or equal to its maximum tolerated dose, will show therapeutic synergy when the log10 cell kill is greater than the value of the log10 cell kill of the best constituent when it is administered alone, and in particular has a superiority of at least one log cell kill.
(§5) The effectiveness of the combinations on solid tumors can be determined experimentally in the following way:
(§6) The animals subjected to the experiment, generally mice, are grafted bilaterally, subcutaneously, with 30 to 60 mg of an HCT116 human tumor fragment (Brattain, M. G., Fine, W. D., Khaled, F. M., Thompson, J. and Brattain, D. E., Heterogeneity of malignant cells from a human colonic carcinoma. Cancer Res., 1981, 41, 1751-1756) on day 0. The animals bearing the tumors are randomized before being subjected to the various treatments and controls. In the case of treatment of tumors of the present invention, the tumors were allowed to develop to a size of between 48 and 294 mg, which made it possible to have a median tumor per group of between 129 and 162 mg. […] Animals bearing tumors were also subjected to the same treatments with the excipient alone in order to be able to dissociate the toxic effect of the excipient from the actual effect of the chemotherapy on the tumor. The chemotherapy was begun on day 12 after the tumor graft. The VEGF Trap injections were given subcutaneously simultaneously with the irinotecan injections, which themselves were given intravenously, according to a daily double injection. These injections were carried out on days 12, 15 and 18 after implantation of the tumor. The various groups of animals are weighed three to four times per week until the maximum weight loss is reached, and then the groups are weighed at least once a week until the end of the trial.
(§7) The tumors are measured two or three times a week until the tumor reaches approximately 2 g or until the death of the animal if the latter occurs before the tumor reaches 2 g. The animals are autopsied at the time of sacrifice.
(§8) The antitumor activity is determined according to the various parameters recorded.
(§9) Vials of 1 cm^3 containing 25 mg of VEGF Trap which are diluted in a buffer of 5 mM phosphate, 5 mM sodium citrate, 100 mM sodium chloride, polysorbate 20 and 20% sucrose are prepared according to the usual technique, for subcutaneous administration. The administration volume per mouse is 0.1 ml. The VEGF Trap is administered once a day, on days 12, 15 and 18 after implantation of the tumor.
(§10) 0.3 ml per mouse is prepared, according to the usual technique, for intravenous administration, from a commercially available solution at 20 mg/ml of irinotecan to be diluted with 5% dextrose in water.
(§11) These solutions are administered simultaneously, after a suitable dilution.
(§12) The treatment with irinotecan is repeated twice a day, with a 4-hour interval, on days 12, 15 and 18 after implantation of the tumor.
(§13) Tumor doubling time=3.2 days.
(§14) Abbreviations used: (T-C) delay in growth of the tumor, Ick=log cell kill.

HCT116 human tumor = assay: as above; type: in vivo
Description: as §1, §2, §3, §4, §5, §6, §7, §8, §9, §10, §11, §12, §13, §14

VEGF-A = target: T1, VEGF-A (Homo sapiens, UniProt P15692); conditions: in comparison with Avastin (bevacizumab); cited from earlier work
T1 sequence (P15692 207-395 limits assumed): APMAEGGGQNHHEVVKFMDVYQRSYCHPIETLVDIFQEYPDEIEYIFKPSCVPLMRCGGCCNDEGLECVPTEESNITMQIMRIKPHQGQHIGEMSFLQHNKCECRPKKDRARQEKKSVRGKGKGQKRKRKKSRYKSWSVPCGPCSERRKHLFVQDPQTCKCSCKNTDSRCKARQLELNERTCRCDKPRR

[2] = target: PIGF (placental growth factor) (Homo sapiens, UniProt P49763); conditions: cited from earlier work
VEGF-B = VEGF-B (Homo sapiens, UniProt P49765); conditions: cited from earlier work
[3] = CPT-11 alone, 12.5 mg/kg per injection i.v., 2x/d days 12, 15, 18, total 75.0 mg/kg, group 9
[4] = CPT-11 alone, 20.2 mg/kg per injection i.v., 2x/d days 12, 15, 18, total 121.2 mg/kg, group 8
[5] = CPT-11 alone, 32.5 mg/kg per injection i.v., 2x/d days 12, 15, 18, total 195.0 mg/kg, group 7
[6] = VEGF Trap alone, 2.5 mg/kg s.c. days 12, 15, 18, total 7.5 mg/kg, group 5
[7] = VEGF Trap alone, 10.0 mg/kg s.c. days 12, 15, 18, total 30.0 mg/kg, group 4
[8] = VEGF Trap alone, 25.0 mg/kg s.c. days 12, 15, 18, total 75.0 mg/kg, group 3
[9] = VEGF Trap alone, 40.0 mg/kg s.c. days 12, 15, 18, total 120.0 mg/kg, group 2

Chain of VEGF-B (P49765 22-207, species assumed): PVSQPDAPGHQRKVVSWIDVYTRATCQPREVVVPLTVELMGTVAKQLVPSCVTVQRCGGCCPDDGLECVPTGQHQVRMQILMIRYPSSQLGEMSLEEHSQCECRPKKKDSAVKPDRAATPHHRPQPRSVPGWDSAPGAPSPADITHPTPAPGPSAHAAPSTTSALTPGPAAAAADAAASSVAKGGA
Chain of PIGF (placental growth factor) (P49763 19-221): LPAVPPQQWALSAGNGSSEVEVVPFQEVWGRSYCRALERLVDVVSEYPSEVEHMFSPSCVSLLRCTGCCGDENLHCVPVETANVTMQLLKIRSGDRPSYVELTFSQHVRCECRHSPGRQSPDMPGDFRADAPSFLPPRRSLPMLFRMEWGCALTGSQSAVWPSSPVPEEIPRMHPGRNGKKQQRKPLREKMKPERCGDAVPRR

CCc1c2c(nc3ccc(OC(=O)N4CCC(N5CCCCC5)CC4)cc13)-c1cc3c(c(=O)n1C2)COC(=O)[C@]3(O)CC [CPT-11, irinotecan]
MTD [1]: 75 mg/kg
Average time for the tumor to reach 750 mg (HCT116 human tumor; [3]): 37.6 days
Comments (activity) (HCT116 human tumor; [3]): active
Comments (dose level) (HCT116 human tumor; [3]): HNTD
Death due to the product, with day of death (HCT116 human tumor; [3]): 0/8
Log cell kill (HCT116 human tumor; [3]): 1.8
Survivors without tumor at day 144 (HCT116 human tumor; [3]): 0/8
T-C (HCT116 human tumor; [3]): 19.1 days
Weight loss of the mouse (date of low-point) (HCT116 human tumor; CPT-11 alone, 12.5 mg/kg per injection i.v., 2x/d days 12, 15, 18, total 75.0 mg/kg, group 9, low-point day 21): −15.9%
Comments (HCT116 human tumor; [4]): Toxic
Death due to the product, with day of death (HCT116 human tumor; [4]): 0/8
Comments (HCT116 human tumor; CPT-11 alone, 20.2 mg/kg per injection i.v., 2x/d days 12, 15, 18, total 121.2 mg/kg, group 8, listed as irinotecan): Toxicity was observed
Weight loss of the mouse (date of low-point) (HCT116 human tumor; CPT-11 alone, 20.2 mg/kg per injection i.v., 2x/d days 12, 15, 18, total 121.2 mg/kg, group 8, low-point day 19): −21.9%
Weight loss of the mouse (date of low-point) (HCT116 human tumor; CPT-11 alone, 20.2 mg/kg per injection i.v., 2x/d days 12, 15, 18, total 121.2 mg/kg, group 8, low-point day 19, listed as irinotecan): greater than 20%
Comments (HCT116 human tumor; [5]): Toxic
Death due to the product, with day of death (HCT116 human tumor; [5]): 0/7
Comments (HCT116 human tumor; CPT-11 alone, 32.5 mg/kg per injection i.v., 2x/d days 12, 15, 18, total 195.0 mg/kg, group 7, listed as irinotecan): Toxicity was observed
Weight loss of the mouse (date of low-point) (HCT116 human tumor; CPT-11 alone, 32.5 mg/kg per injection i.v., 2x/d days 12, 15, 18, total 195.0 mg/kg, group 7, low-point day 19): −23.1%
Weight loss of the mouse (date of low-point) (HCT116 human tumor; CPT-11 alone, 32.5 mg/kg per injection i.v., 2x/d days 12, 15, 18, total 195.0 mg/kg, group 7, low-point day 19, listed as irinotecan): greater than 20%
Death due to the product, with day of death (HCT116 human tumor; CPT-11 alone, 52.4 mg/kg per injection i.v., 2x/d (4 h apart) days 12, 15, 18, total 314.4 mg/kg, group 6, day of death 23): 1/8 (23)
Death due to the product, with day of death (HCT116 human tumor; CPT-11 alone, 52.4 mg/kg per injection i.v., 2x/d (4 h apart) days 12, 15, 18, total 314.4 mg/kg, group 6, day of death 23, listed as irinotecan): a death
Comments (HCT116 human tumor; CPT-11 alone, 52.4 mg/kg per injection i.v., 2x/d days 12, 15, 18, total 314.4 mg/kg, group 6): Toxic
Comments (HCT116 human tumor; CPT-11 alone, 52.4 mg/kg per injection i.v., 2x/d days 12, 15, 18, total 314.4 mg/kg, group 6, listed as irinotecan): Toxicity was observed
Weight loss of the mouse (date of low-point) (HCT116 human tumor; CPT-11 alone, 52.4 mg/kg per injection i.v., 2x/d days 12, 15, 18, total 314.4 mg/kg, group 6, low-point day 21): −27.0%
maximum tolerated dose (HCT116 human tumor; irinotecan alone, i.v. twice a day on days 12, 15, 18): 12.5 mg/kg/inj

VEGF Trap: fusion protein: D2 Ig domain of VEGFR1 fused to D3 Ig domain of VEGFR2, fused to the Fc domain of IgG1
Average time for the tumor to reach 750 mg (HCT116 human tumor; [6]): 20.2 days
Comments (activity) (HCT116 human tumor; [6]): inactive
Death due to the product, with day of death (HCT116 human tumor; [6]): 0/8
Log cell kill (HCT116 human tumor; [6]): 0.2
Survivors without tumor at day 144 (HCT116 human tumor; [6]): 0/8
T-C (HCT116 human tumor; [6]): 1.7 days
Weight loss of the mouse (date of low-point) (HCT116 human tumor; VEGF Trap alone, 2.5 mg/kg s.c. days 12, 15, 18, total 7.5 mg/kg, group 5, low-point day 19): −8.3 (19) %
Average time for the tumor to reach 750 mg (HCT116 human tumor; [7]): 32.0 days
Comments (activity) (HCT116 human tumor; [7]): active
Death due to the product, with day of death (HCT116 human tumor; [7]): 0/8
Log cell kill (HCT116 human tumor; [7]): 1.3
Survivors without tumor at day 144 (HCT116 human tumor; [7]): 1/8
T-C (HCT116 human tumor; [7]): 13.5 days
Weight loss of the mouse (date of low-point) (HCT116 human tumor; VEGF Trap alone, 10.0 mg/kg s.c. days 12, 15, 18, total 30.0 mg/kg, group 4, low-point day 19): −5.0 (19) %
Average time for the tumor to reach 750 mg (HCT116 human tumor; [8]): 36.8 days
Comments (activity) (HCT116 human tumor; [8]): active
Death due to the product, with day of death (HCT116 human tumor; [8]): 0/8
Log cell kill (HCT116 human tumor; [8]): 1.7
Survivors without tumor at day 144 (HCT116 human tumor; [8]): 0/8
T-C (HCT116 human tumor; [8]): 18.3 days
Weight loss of the mouse (date of low-point) (HCT116 human tumor; VEGF Trap alone, 25.0 mg/kg s.c. days 12, 15, 18, total 75.0 mg/kg, group 3, low-point day 13): −2.2 (13) %
Average time for the tumor to reach 750 mg (HCT116 human tumor; [9]): 36.8 days
Death due to the product, with day of death (HCT116 human tumor; [9]): 0/8
Log cell kill (HCT116 human tumor; [9]): 1.7
Survivors without tumor at day 144 (HCT116 human tumor; [9]): 0/8
T-C (HCT116 human tumor; [9]): 18.3 days
Comments (activity) (HCT116 human tumor; VEGF Trap alone, 40.0 mg/kg s.c. days 12, 15, 18, total 120.0 mg/kg, group 2 (HDT)): active
Weight loss of the mouse (date of low-point) (HCT116 human tumor; VEGF Trap alone, 40.0 mg/kg s.c. days 12, 15, 18, total 120.0 mg/kg, group 2, low-point day 13): −3.1 (13) %
tolerability (HCT116 human tumor; VEGF Trap alone, all the dosages tested (2.5 to 40 mg/kg/administration s.c.)): well-tolerated
affinity for VEGF-A compared with Avastin (VEGF-A): much higher affinity
binding to PIGF (selectivity profile) [2]: also binds
binding to VEGF-B (selectivity profile) (VEGF-B): also binds
